Results taken from patent US11208400B2, “Substituted 6-(1H-pyrazol-1-yl)pyrimidin-4-amine derivatives and uses thereof” (Bayer Aktiengesellschaft, priority 2016, dated 2021).

Target: T1, human Npt2a (Homo sapiens, UniProt Q06495)
T1 construct: expressed in transfected cells
T1 sequence (Q06495 1-639): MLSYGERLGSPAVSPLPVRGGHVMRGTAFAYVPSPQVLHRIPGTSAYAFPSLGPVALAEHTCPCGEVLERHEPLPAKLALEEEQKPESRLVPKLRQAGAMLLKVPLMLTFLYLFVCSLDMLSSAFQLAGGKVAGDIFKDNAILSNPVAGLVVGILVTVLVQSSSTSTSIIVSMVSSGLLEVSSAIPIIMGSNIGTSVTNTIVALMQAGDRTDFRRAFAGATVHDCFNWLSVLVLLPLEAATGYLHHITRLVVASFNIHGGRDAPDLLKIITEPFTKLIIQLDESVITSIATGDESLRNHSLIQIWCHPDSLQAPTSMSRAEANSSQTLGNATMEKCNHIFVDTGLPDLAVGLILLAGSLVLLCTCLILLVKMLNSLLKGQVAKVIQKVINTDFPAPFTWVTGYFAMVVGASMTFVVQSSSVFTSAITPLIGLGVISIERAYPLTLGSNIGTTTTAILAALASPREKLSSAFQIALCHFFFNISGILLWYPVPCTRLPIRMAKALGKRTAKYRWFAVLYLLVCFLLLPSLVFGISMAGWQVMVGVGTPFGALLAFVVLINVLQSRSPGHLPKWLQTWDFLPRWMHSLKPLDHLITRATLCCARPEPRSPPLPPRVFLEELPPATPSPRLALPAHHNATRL
Assay: Npt2a activity cell based assay, membrane potential dye, CHO T-REx hNpt2a cells
Details: doxycycline-induced, depolarization by sodium phosphate influx, average or median values if tested more than once
Experimental: For measuring Npt2a activity in a cell based assay, a stable CHO cell line with inducible Npt2a expression was generated. Therefore, CHO T-Rex cells (life technologies cat. R718-07) were stably transfected with doxycycline-inducible human NPT2a (pcDNA5TO-hNpt2a). The obtained CHO T-REx hNpt2a cells were routinely cultured in Dulbecco's MEM/F12 (4.5 g/l Glucose, Gibco cat. 21331-020; 500 mL) supplemented with 10 ml Glutamax 100×, Sodium pyruvate (7 mL of 100 mM solution), HEPES (10 mL of 1 M solution), Sodium bicarbonate (10 mL of 7.5% solution), 10% Fetal Bovine Serum Tetracycline free (Clontech cat. 631106, 500 ml), Penicillin-Streptomycin (5 mL of 100× Solution), Blasticidin 10 μg/mL and 400 μg/mL Hygromycin.
Activity of Npt2a was detected by following depolarization of cellular membrane potential by influx of sodium phosphate using fluorescent membrane potential dye kit BLUE (Molecular devices cat. R8034). For Npt2a activity measurements, CHO T-Rex hNpt2a cells were seeded into 1536 well microtiter plates (GREINER Bio-One cat. 782092) with 750 cells/well in 7 μL/w of complete medium (2% Tetracycline-free FBS, 2% Poly-D-Lysine) without selective agents+Doxycycline 0.5 μg/mL to induce Npt2a gene expression, and grown for 24 h at 37° C., 5% carbon dioxide.
On the day of experiment a 1×MPdye Loading Solution was freshly prepared by re-suspending 15 mg of Blue MPdye powder in 10 mL of NHE buffer sodium-free (140 mM N-Methyl-D-glucamine, 5.4 mM KCl, 1 mM CaCl2, 11 mM D(±)-Glucose water free, 1.2 mM MgCl2, 10 mM HEPES; pH 7.4 (adjusted with hydrochloric acid); sterile filtered). 5 μl medium was removed from plates by robotic manipulation, then 5 μL/well of sodium-free NHE buffer was added. After incubation for 2 min, this washing step was repeated once. Then, 5 μL/w of buffer was removed from plates and cells were incubated for 5 min at room temperature with 5 μL/w of MPdye Loading Solution (1× in Sodium-free NHE Buffer). Test compounds were added to the cells at final test concentrations between 50 μM and 1 nM (0.6 μL/well, final DMSO 0.6%, prepared in MPDye Loading Solution) and incubated for 5 min at room temperature.
Plates were analyzed with an in house CCD camera device using a λexc 510-545 nm/λem 565-625 nm filter. Fluorescence was detected for 15 sec (background measurement M1). Activity of Npt2a was triggered by addition of 2 μL/well of 30 mM Na+ and 1 mM phosphate (prepared in a mixture of NHE Buffer Na+ free and NHE Buffer 140 mM Na+). Fluorescence was followed for 2-3 min (depolarization measurement M2). Data was normalized to cell number and dye loading efficiency by calculating M2/M1. This quotient was plotted against test compound concentration. Graph Pad Prism or equivalent in house software was used to create sigmoidal dose-response curves (variable slope) and determine IC50 values.

Work on Cc1nn(-c2cc(Nc3c(C)c(-c4ccc(C(F)F)cc4)nn3CC3CC3)ncn2)c(C)c1C(O)C1CC1 (racemic) [Example 460, (±)-cyclopropyl {1-[6-({1-(cyclopropylmethyl)-3-[4-(difluoromethyl)phenyl]-4-methyl-1H-pyrazol-5-yl}amino)pyrimidin-4-yl]-3,5-dimethyl-1H-pyrazol-4-yl}methanol] yielded an IC50 of 98 nM.
Molecule Cc1nn(-c2cc(Nc3c(C)c(-c4ccc(F)cc4)nn3CC3CC3)ncn2)c(C)c1C(N(C)C)C(F)(F)F (racemic) [Example 504, N-[1-(cyclopropylmethyl)-3-(4-fluorophenyl)-4-methyl-1H-pyrazol-5-yl]-6-{4-[(±)-1-(dimethylamino)-2,2,2-trifluoroethyl]-3,5-dimethyl-1H-pyrazol-1-yl}pyrimidin-4-amine] has an IC50 of 5 nM.
For CCc1c(Nc2cc(-n3nc(C)c(C(=O)N4CCCC4C)c3C)ncn2)nn(C)c1-c1ccc(F)cc1 (single isomer, unassigned) [Example 106, [1-ent-(6-{[4-ethyl-5-(4-fluorophenyl)-1-methyl-1H-pyrazol-3-yl]amino}pyrimidin-4-yl)-3,5-dimethyl-1H-pyrazol-4-yl](2-methylpyrrolidin-1-yl)methanone], the IC50 was 120 nM.
Work on CCc1c(Nc2cc(-n3nc(C)c(C(=O)N4CCCC4C)c3C)ncn2)nn(C)c1-c1ccc(F)cc1 (single isomer, unassigned) [Example 107, [1-ent-(6-{[4-ethyl-5-(4-fluorophenyl)-1-methyl-1H-pyrazol-3-yl]amino}pyrimidin-4-yl)-3,5-dimethyl-1H-pyrazol-4-yl](2-methylpyrrolidin-1-yl)methanone] yielded an IC50 of 293 nM.
COC(C)c1c(C)nn(-c2cc(Nc3c(C)c(-c4ccc(F)cc4)nn3CC3CC3)ncn2)c1C (single isomer, unassigned) [Example 327, N-[1-(cyclopropylmethyl)-3-(4-fluorophenyl)-4-methyl-1H-pyrazol-5-yl]-6-{4-[1-methoxyethyl]-3,5-dimethyl-1H-pyrazol-1-yl}pyrimidin-4-amine] was tested, and the IC50 was 4 nM.
COC(C)c1c(C)nn(-c2cc(Nc3c(C)c(-c4ccc(F)cc4)nn3CC3CC3)ncn2)c1C (single isomer, unassigned) [Example 328, N-[1-(cyclopropylmethyl)-3-(4-fluorophenyl)-4-methyl-1H-pyrazol-5-yl]-6-{4-[1-methoxyethyl]-3,5-dimethyl-1H-pyrazol-1-yl}pyrimidin-4-amine] showed an IC50 of 4 nM.
Cc1nn(-c2cc(Nc3c(C)c(-c4ccc(F)cc4)nn3CC3CC3)ncn2)c(C)c1C(C)O (single isomer, unassigned) [Example 329, 1-[1-(6-{[1-(cyclopropylmethyl)-3-(4-fluorophenyl)-4-methyl-1H-pyrazol-5-yl]amino}pyrimidin-4-yl)-3,5-dimethyl-1H-pyrazol-4-yl]ethanol] showed an IC50 of 67 nM.
With Cc1nn(-c2cc(Nc3c(C)c(-c4ccc(F)cc4)nn3CC3CC3)ncn2)c(C)c1C(C)O (single isomer, unassigned) [Example 330, 1-[1-(6-{[1-(cyclopropylmethyl)-3-(4-fluorophenyl)-4-methyl-1H-pyrazol-5-yl]amino}pyrimidin-4-yl)-3,5-dimethyl-1H-pyrazol-4-yl]ethanol] the IC50 was 22 nM.
COc1c(-c2ccc(C#N)cc2)nn(CC2CC2)c1Nc1cc(-n2nc(C)c(C(C)O)c2C)ncn1 (single isomer, unassigned) [Example 332, 4-{1-(cyclopropylmethyl)-5-[(6-{4-[1-hydroxyethyl]-3,5-dimethyl-1H-pyrazol-1-yl}pyrimidin-4-yl)amino]-4-methoxy-1H-pyrazol-3-yl}benzonitrile] showed an IC50 of 1900 nM.
Molecule COc1c(-c2ccc(C#N)cc2)nn(CC2CC2)c1Nc1cc(-n2nc(C)c(C(C)OC)c2C)ncn1 (single isomer, unassigned) [Example 334, 4-{1-(cyclopropylmethyl)-4-methoxy-5-[(6-{4-[1-methoxyethyl]-3,5-dimethyl-1H-pyrazol-1-yl}pyrimidin-4-yl)amino]-1H-pyrazol-3-yl}benzonitrile] has an IC50 of 41 nM.
Molecule COc1c(-c2ccc(C#N)cc2)nn(CC2CC2)c1Nc1cc(-n2nc(C)c(C(C)OC)c2C)ncn1 (single isomer, unassigned) [Example 335] has an IC50 of 51 nM.
Molecule COC(C)c1c(C)nn(-c2cc(Nc3c(C)c(-c4ccc(C#N)cc4)nn3C)ncn2)c1C (single isomer, unassigned) [Example 339, 4-{5-[(6-{4-[1-methoxyethyl]-3,5-dimethyl-1H-pyrazol-1-yl}pyrimidin-4-yl)amino]-1,4-dimethyl-1H-pyrazol-3-yl}benzonitrile] has an IC50 of 8 nM.
COC(C)c1c(C)nn(-c2cc(Nc3c(C)c(-c4ccc(C#N)cc4)nn3C)ncn2)c1C (single isomer, unassigned) [Example 340, 4-{5-[(6-{4-[1-methoxyethyl]-3,5-dimethyl-1H-pyrazol-1-yl}pyrimidin-4-yl)amino]-1,4-dimethyl-1H-pyrazol-3-yl}benzonitrile] showed an IC50 of 12 nM.
Work on COC(C)c1c(C)nn(-c2cc(Nc3nn(C)c(-c4ccc(F)cc4)c3C)ncn2)c1C (single isomer, unassigned) [Example 344, N-[5-(4-fluorophenyl)-1,4-dimethyl-1H-pyrazol-3-yl]-6-{4-[1-methoxyethyl]-3,5-dimethyl-1H-pyrazol-1-yl}pyrimidin-4-amine] yielded an IC50 of 5 nM.
COC(C)c1c(C)nn(-c2cc(Nc3nn(C)c(-c4ccc(F)cc4)c3C)ncn2)c1C (single isomer, unassigned) [Example 345, N-[5-(4-fluorophenyl)-1,4-dimethyl-1H-pyrazol-3-yl]-6-{4-[1-methoxyethyl]-3,5-dimethyl-1H-pyrazol-1-yl}pyrimidin-4-amine] was tested, and the IC50 was 7 nM.
Cc1nn(-c2cc(Nc3c(C)c(-c4ccc(C#N)cc4)nn3CC3CC3)ncn2)c(C)c1C(O)C(F)(F)F (single isomer, unassigned) [Example 359, 4-{1-(cyclopropylmethyl)-5-[(6-{3,5-dimethyl-4-[2,2,2-trifluoro-1-hydroxyethyl]-1H-pyrazol-1-yl}pyrimidin-4-yl)amino]-4-methyl-1H-pyrazol-3-yl}benzonitrile] was tested, and the IC50 was 15 nM.
Work on Cc1nn(-c2cc(Nc3c(C)c(-c4ccc(C#N)cc4)nn3CC3CC3)ncn2)c(C)c1C(O)C(F)(F)F (single isomer, unassigned) [Example 360, 4-{1-(cyclopropylmethyl)-5-[(6-{3,5-dimethyl-4-[(1 S)-2,2,2-trifluoro-1-hydroxyethyl]-1H-pyrazol-1-yl}pyrimidin-4-yl)amino]-4-methyl-1H-pyrazol-3-yl}benzonitrile] yielded an IC50 of 6 nM.
Work on Cc1cc(C)n(-c2cc(Nc3c(C)c(-c4ccc(F)cc4)nn3CC(O)C3CC3)ncn2)n1 (single isomer, unassigned) [Example 370, 1-cyclopropyl-2-[5-{[6-(3,5-dimethyl-1H-pyrazol-1-yl)pyrimidin-4-yl]amino}-3-(4-fluorophenyl)-4-methyl-1H-pyrazol-1-yl]ethanol] yielded an IC50 of 2400 nM.
